Data as given in patent publication US11926593B1, “6′-(3-bromophenyl)-2′-methoxy-3,4′-bipyridine-3′-carbonitrile as an antioxidant compound” (KING FAISAL UNIVERSITY, priority 2023, dated 2024).

Assay: DPPH radical scavenging antioxidant test
Format: biochemical
Settings: 517 nm; for Inhibition (radical scavenging inhibition): DPPH 0.2 mL (0.75 mM), compound 3 μM in ethanol, 30 minutes in the dark
Method: The antioxidant activity of 6′-(3-bromophenyl)-2′-methoxy-3,4′-bipyridine-3′-carbonitrile was investigated by 2,2-diphenyl-1-picrylhydrazyl (DPPH) in vitro tests that employ vitamin C as the positive control.
The antioxidant properties of the 6′-(3-bromophenyl)-2′-methoxy-3,4′-bipyridine-3′-carbonitrile compound were studied by adding 0.2 mL DPPH (0.75 mM)) to 6′-(3-bromophenyl)-2′-methoxy-3,4′-bipyridine-3′-carbonitrile (3 μM) (4) in ethanol. After 30 minutes of incubation in the dark, the absorbance was read against a blank at 517 nm. Ascorbic acid (vitamin C) was used as standard antioxidants (positive control). A blank sample was prepared by 0.2 mL of DPPH in 3 mL ethanol. A negative control sample was run using ethanol instead of the sample. The radical scavenging inhibition was calculated using the following equation: […]
The antioxidant activity for the synthesized compound is listed in Table 1, using Vitamin C as a reference.

O=C1O[C@H]([C@@H](O)CO)C(O)=C1O [vit c, Ascorbic acid, reference compound]
Inhibition (radical scavenging inhibition): 74%

COc1nc(-c2cccc(Br)c2)cc(-c2cccnc2)c1C#N [Product 4, 6′-(3-bromophenyl)-2′-methoxy-3,4′-bipyridine-3′-carbonitrile]
Inhibition (radical scavenging inhibition): 50%
antioxidant potential compared to vitamin C (DPPH in vitro test, vitamin C as positive control): high potential as an antioxidant
